Experimental data from PubChem BioAssay AID588404 (Broad Institute, 2011).
Inconclusive results are not listed. Active and inactive are the calls of the source.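 How the source made its calls: active means every replicate run active, meaning lowered signal with potency within ten times the top valid dose; inconclusive means runs neither all active nor all inactive; inactive means all replicate runs inactive, including opposite-direction effects.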

Key:
[1] = tested on: S. cerevisiae expressing HsHsp90, growth, BacTiter-Glo 48 h; assay: growth inhibition of HsHsp90-dependent yeast, dose response, counter-screen for P. falciparum Hsp90 inhibitor project, plate reader, dry powder samples (AID 588404)
[2] = as above; settings: S. cerevisiae expressing HsHsp90, growth, BacTiter-Glo 48 h; at 150 µM (top of the series)

Structure (SMILES)	AC50 [1] [µM]	activity change, negative = inhibition [2]
O=C1C(Cl)=C(Oc2ccccc2)C(=O)c2ccccc21	< 2.35	
O=C(O)/C=C/c1cn(-c2ccccc2)nc1-c1cc2ccccc2o1	9.22	
COc1ccc2c(c1)[nH]c1c(C)nccc12		9.79% (inactive)
O=S(=O)(NC1CCCCCC1)c1ccc(Br)s1	6.82	
O=S(=O)(NC1CC2CCC1C2)c1ccc(Cl)cc1 (centres undefined)	7.89	
CCOc1cc(S(=O)(=O)NC2CCCCCC2)ccc1F	26.6	
O=C1C(Cl)=C(NCCc2ccccc2)C(=O)c2ccccc21		20.9% (inactive)
CCN(CC)c1ccc(/C=C2/SC(=O)N(C(C)C)C2=O)o1	12.3	
O=S(=O)(/C=C/c1ccccc1)NC1CCCCCCC1	19.8	
